Here are results for 21 molecules from patent US20250282785A1, “PYRROLIDINONE DERIVATIVES AS INHIBITORS OF NF KAPPA B INDUCING KINASE” (priority 2022, published 2025).

Like-named read-outs stand apart in the source and are kept apart here. A value given as a limit tells only on which side of the number the result lay.

In assay [1] the target is Recombinant Human NF-Kappab-Inducing Kinase (NIK/MAP3K14) (Homo sapiens, UniProt Q99558). Put plainly: Inhibition of auto-phosphorylation of recombinant human NIK/MAP3K14 (AlphaScreen). It counts as biochemical. An outline of the steps:
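AlphaScreen read-out used anti-phospho-IKK Ser176/180 antibody after 2 h, 25 °C incubation of compound, 1 nM GST-NIK and 5 µM ATP (final DMSO 0.7%). Percent inhibition referenced to high (enzyme) and low (no enzyme, no ATP) controls; sigmoidal curve fitting gave IC50.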
A general note: Bead proximity is the source of the signal in Alpha formats.

In assay [2] the test system is p-IKKα levels in L363 (NIK translocated multiple myeloma) cells. Put plainly: Effect of compounds on p-IKKα levels in L363 cells (AlphaLISA SureFire Ultra). The following applies: Homo sapiens, read-out: Assay 2 IC50. It counts as cell-based. An outline of the steps:
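Phospho-IKKα (Ser 176/180) was quantified by AlphaLISA in lysed L363 cells after 6 h compound exposure (0.3% DMSO, 11 points, 1:3) alongside 250 ng/ml BAFF and 10 uM MG132, following overnight BAFF priming in low-serum DMEM. Duplicate curves were scaled between BAFF/DMSO/MG132 and unstimulated DMSO wells, then fitted sigmoidally for IC50.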

[3] abbreviates: NIK/MAP3K14 auto-phosphorylation, 5 microM ATP, 1 nM enzyme, 2 h at 25° C., average of values, read-out: Assay 1 IC50.
[4] abbreviates: L-363, L363 cells, BAFF stimulated, MG132, 6 h, average of values.

Chain of Recombinant Human NF-Kappab-Inducing Kinase (NIK/MAP3K14) (Q99558 whole entry): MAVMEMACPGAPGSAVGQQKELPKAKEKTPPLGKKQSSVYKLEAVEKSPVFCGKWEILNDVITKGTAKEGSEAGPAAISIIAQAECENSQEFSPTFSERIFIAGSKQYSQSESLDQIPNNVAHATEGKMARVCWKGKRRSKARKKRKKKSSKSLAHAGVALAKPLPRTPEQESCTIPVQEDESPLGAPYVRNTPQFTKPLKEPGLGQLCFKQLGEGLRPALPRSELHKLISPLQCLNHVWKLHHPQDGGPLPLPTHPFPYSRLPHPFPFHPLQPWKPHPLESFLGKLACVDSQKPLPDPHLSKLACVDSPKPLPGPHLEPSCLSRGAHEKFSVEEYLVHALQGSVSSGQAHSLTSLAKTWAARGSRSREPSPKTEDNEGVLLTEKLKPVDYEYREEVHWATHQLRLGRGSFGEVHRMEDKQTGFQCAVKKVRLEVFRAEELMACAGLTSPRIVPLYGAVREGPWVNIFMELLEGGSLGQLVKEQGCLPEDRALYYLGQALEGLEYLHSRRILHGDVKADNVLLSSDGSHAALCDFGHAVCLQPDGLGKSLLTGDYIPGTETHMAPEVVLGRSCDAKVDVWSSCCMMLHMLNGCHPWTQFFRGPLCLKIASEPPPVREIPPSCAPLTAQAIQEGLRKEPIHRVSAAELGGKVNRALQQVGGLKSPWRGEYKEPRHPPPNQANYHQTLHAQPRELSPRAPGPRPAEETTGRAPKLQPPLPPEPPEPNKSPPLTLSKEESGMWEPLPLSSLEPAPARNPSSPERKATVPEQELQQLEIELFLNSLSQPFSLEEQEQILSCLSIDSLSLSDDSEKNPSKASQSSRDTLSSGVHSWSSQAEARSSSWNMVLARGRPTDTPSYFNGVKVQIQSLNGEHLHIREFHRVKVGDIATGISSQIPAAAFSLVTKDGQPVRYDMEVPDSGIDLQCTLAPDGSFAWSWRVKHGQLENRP

For `CN1CC[C@@](O)(c2cc(-c3cccc(-c4nc(C(N)=O)c(NC5COC5)s4)c3)no2)C1=O` [Example 210, (R)-2-(3-(5-(3-Hydroxy-1-methyl-2-oxopyrrolidin-3-yl)isoxazol-3-yl)phenyl)-5-(oxetan-3-ylamino)thiazole-4-carboxamide], the half-maximal inhibitory concentration (IC50) in assay [1] (setting [3]) and in assay [2] (setting [4]) was below 100 nM in each case.
Consider `CC(C)Cc1sc(-c2cccc(-c3cc([C@]4(O)CCN(C)C4=O)on3)c2)nc1C(N)=O` [Example 220, (R)-2-(3-(5-(3-Hydroxy-1-methyl-2-oxopyrrolidin-3-yl)isoxazol-3-yl)phenyl)-5-isobutylthiazole-4-carboxamide], for which the 50% inhibitory concentration (IC50) (as a rule, the concentration needed to halve the response being measured) is below 100 nM in assay [1] and above 501 nM in assay [2] (L-363, 6 h).
With `CN1CC[C@@](O)(c2cc(-c3cccc(-c4cc(-c5ccns5)cc(C(N)=O)n4)c3)no2)C1=O` [Example 183, (R)-6-(3-(5-(3-Hydroxy-1-methyl-2-oxopyrrolidin-3-yl)isoxazol-3-yl)phenyl)-4-(isothiazol-5-yl)picolinamide], the values for the half-maximal inhibitory concentration (IC50) in assay [1] (setting [3]) and in assay [2] (setting [4]) were below 100 nM and above 501 nM, respectively.
As to `CN1CC[C@@](O)(c2cc(-c3cccc(-c4ccnc5[nH]ccc45)c3)no2)C1=O` [Example 49, (R)-3-(3-(3-(1H-Pyrrolo[2,3-b]pyridin-4-yl)phenyl)isoxazol-5-yl)-3-hydroxy-1-methylpyrrolidin-2-one], the results for the concentration for half-maximal inhibition (IC50) in assay [1] (setting [3]) and in assay [2] (setting [4]) were below 100 nM and above 501 nM, respectively.
Taken in the same sequence, the figures for `CN1CC[C@@](O)(c2cc(-c3cccc(-c4ccn5nccc5n4)c3)no2)C1=O` [Example 68, (R)-3-Hydroxy-1-methyl-3-(3-(3-(pyrazolo[1,5-a]pyrimidin-5-yl)phenyl)isoxazol-5-yl)pyrrolidin-2-one] were above 501 nM and above 501 nM.
With `CN1CC[C@@](O)(c2cc(-c3ccnc(-c4cc(C5CC5)c(N)c(C(N)=O)n4)c3)no2)C1=O` [Example 241, (R)-5-Amino-4-cyclopropyl-4′-(5-(3-hydroxy-1-methyl-2-oxopyrrolidin-3-yl)isoxazol-3-yl)-[2,2′-bipyridine]-6-carboxamide], the IC50 in assay [1] (setting [3]) and in assay [2] (setting [4]) was below 100 nM throughout.
On to `CN1CC[C@@](O)(c2cc(-c3cccc(-c4cccc5[nH]ccc45)c3)no2)C1=O` [Example 77, (R)-3-(3-(3-(1H-Indol-4-yl)phenyl)isoxazol-5-yl)-3-hydroxy-1-methylpyrrolidin-2-one], for which the IC50 in assay [1] (setting [3]) and in assay [2] (setting [4]) was above 501 nM each time.
Take `CN1CC[C@@](O)(c2cc(-c3cccc(-c4cc(C5CC5)nc(C(N)=O)n4)c3)no2)C1=O` [Example 85, (R)-4-Cyclopropyl-6-(3-(5-(3-hydroxy-1-methyl-2-oxopyrrolidin-3-yl)isoxazol-3-yl)phenyl)pyrimidine-2-carboxamide]: the IC50 was below 100 nM in assay [1] (setting [3]) and above 501 nM in assay [2] (setting [4]).
For `COc1cc(-c2cccc(-c3cc([C@]4(O)CCN(C)C4=O)on3)c2)cc2c1cnn2C` [Example 76, (R)-3-Hydroxy-3-(3-(3-(4-methoxy-1-methyl-1H-indazol-6-yl)phenyl)isoxazol-5-yl)-1-methylpyrrolidin-2-one] the same measures were 100 to 500 nM and above 501 nM.
As to `COc1ncccc1Nc1sc(-c2cccc(-c3cc([C@]4(O)CCN(C)C4=O)on3)c2)nc1C(N)=O` [Example 213, (R)-2-(3-(5-(3-Hydroxy-1-methyl-2-oxopyrrolidin-3-yl)isoxazol-3-yl)phenyl)-5-((2-methoxypyridin-3-yl)amino)thiazole-4-carboxamide], the 50% inhibitory concentration (IC50) in assay [1] (setting [3]) and in assay [2] (setting [4]) was below 100 nM in each case.
Regarding `CN1CC[C@@](O)(c2cc(-c3cccc(-c4cccc(C(N)=O)n4)c3)no2)C1=O` [Example 148, (R)-6-(3-(5-(3-Hydroxy-1-methyl-2-oxopyrrolidin-3-yl)isoxazol-3-yl)phenyl)picolinamide], the IC50 is below 100 nM in assay [1] (setting [3]) and above 501 nM in assay [2] (setting [4]).
With `CN1CC[C@@](O)(c2cc(-c3cccc(-c4cc(-c5ccnn5C)cc(C(N)=O)n4)c3)no2)C1=O` [Example 182, (R)-6-(3-(5-(3-Hydroxy-1-methyl-2-oxopyrrolidin-3-yl)isoxazol-3-yl)phenyl)-4-(1-methyl-1H-pyrazol-5-yl)picolinamide], the IC50 is below 100 nM in assay [1] (setting [3]) and above 501 nM in assay [2] (setting [4]).
Take `Cc1cc(-c2cccc(-c3cc([C@@]4(O)CCN(C)C4=O)on3)c2)nc2c(N)ncnc12` [Example 27, (S)-3-(3-(3-(4-Amino-8-methylpyrido[3,2-d]pyrimidin-6-yl)phenyl)isoxazol-5-yl)-3-hydroxy-1-methylpyrrolidin-2-one]: the half-maximal inhibitory concentration (IC50) in assay [1] (setting [3]) and in assay [2] (setting [4]) was above 501 nM each time.
In the case of `CN1CC[C@@](O)(c2cc(-c3ccc(F)c(-c4cc(C(F)(F)F)cc(C(N)=O)n4)c3)no2)C1=O` [Example 240, (R)-6-(2-Fluoro-5-(5-(3-hydroxy-1-methyl-2-oxopyrrolidin-3-yl)isoxazol-3-yl)phenyl)-4-(trifluoromethyl)picolinamide], the IC50 in assay [1] (setting [3]) is below 100 nM; in assay [2] (setting [4]), above 501 nM.
Taken in the same sequence, the figures for `CCn1nc(C(F)(F)F)cc1-c1cc(C(N)=O)nc(-c2cccc(-c3cc([C@]4(O)CCN(C)C4=O)on3)c2)c1` [Example 188, (R)-4-(1-Ethyl-3-(trifluoromethyl)-1H-pyrazol-5-yl)-6-(3-(5-(3-hydroxy-1-methyl-2-oxopyrrolidin-3-yl)isoxazol-3-yl)phenyl)picolinamide] were below 100 nM and above 501 nM.
Consider `[2H]c1nc(N)c2nc(-c3cccc(-c4cc([C@@]5(O)CCN(C)C5=O)nn4C)c3)ccc2n1` (single isomer, unassigned) [Example 44], for which the IC50 in assay [1] (setting [3]) and in assay [2] (setting [4]) was above 501 nM each time.
Consider `CN1CC[C@@](O)(c2cc(-c3cccc(-c4ccc5c(c4)N(C)C(=O)CN5)c3)no2)C1=O` [Example 80, (R)-7-(3-(5-(3-Hydroxy-1-methyl-2-oxopyrrolidin-3-yl)isoxazol-3-yl)phenyl)-1-methyl-3,4-dihydroquinoxalin-2(1H)-one], for which the 50% inhibitory concentration (IC50) in assay [1] (setting [3]) and in assay [2] (setting [4]) was above 501 nM in each case.
In the case of `CN1CC[C@@](O)(c2cc(-c3cccc(-c4cc(C(F)(F)F)cc(C(N)=O)n4)c3)no2)C1=O` [Example 91, (R)-6-(3-(5-(3-Hydroxy-1-methyl-2-oxopyrrolidin-3-yl)isoxazol-3-yl)phenyl)-4-(trifluoromethyl)picolinamide], the IC50 in assay [1] (setting [3]) is below 100 nM; in assay [2] (setting [4]), 100 to 500 nM.
Consider `CN1CC[C@@](O)(c2cc(-c3cccc(-c4cccc5c(=O)[nH]ccc45)c3)no2)C1=O` [Example 82, (R)-5-(3-(5-(3-Hydroxy-1-methyl-2-oxopyrrolidin-3-yl)isoxazol-3-yl)phenyl)isoquinolin-1 (2H)-one], for which the half-inhibitory concentration (IC50) in assay [1] (setting [3]) and in assay [2] (setting [4]) was above 501 nM in each case.
As for `[2H]C1([2H])N(C)C(=O)[C@](O)(c2cc(-c3cccc(-c4cc(C5CC5)c(N)c(C(N)=O)n4)c3)no2)C1([2H])[2H]` [Example 177, (R)-3-Amino-4-cyclopropyl-6-(3-(5-(3-hydroxy-1-methyl-2-oxopyrrolidin-3-yl-4,4,5,5-d4)isoxazol-3-yl)phenyl)picolinamide], the IC50 in assay [1] (setting [3]) and in assay [2] (setting [4]) was below 100 nM throughout.
Turning to `CC(=O)Nc1cc(-c2cccc(-c3cc([C@]4(O)CCN(C)C4=O)on3)c2)ccn1` [Example 54, (R)—N-(4-(3-(5-(3-Hydroxy-1-methyl-2-oxopyrrolidin-3-yl)isoxazol-3-yl)phenyl)pyridin-2-yl)acetamide], the figures for the 50% inhibitory concentration (IC50) in assay [1] (setting [3]) and in assay [2] (setting [4]) were 100 to 500 nM and above 501 nM, respectively.
